According to patent US5834462A, “Tricyclic heterocyclic sulfonamide and sulfonic ester derivatives” (Eisai Co., Ltd., priority 1993, dated 1998):
Values after ≈ are worked out from the molar mass of the structure shown.

These compounds were tested on KB cells (human nasopharyngeal cancer cells) (assay: in vitro Antitumor test on KB cells (MTT)). Settings: 72 h, 3 days incubation.
Type: cell-based
Procedure: in vitro Antitumor test on KB cells (human nasopharyngeal cancer cells)
KB cells suspended in an RPMI1640 medium (mfd. by Nissui Seiyaku K. K.), which contained 10% of fetal calf serum, 100 U/mi of penicillin, 100 μg/ml of streptomycin, 5×10^-5 M of mercaptoethanol and 1 mM of sodium pyruvate, were inoculated in 1.25×10^3 portions (0.1 ml) into wells of a 96-well flat-bottomed microplate and then incubated in an incubator containing 5% of carbon dioxide at 37° C. for a day.
A compound of the present invention was dissolved in dimethyl sulfoxide in a concentration of 20 mg/ml and diluted with a 10% fetal calf serum-RPMI1640 culture medium to a concentration of 100 μg/ml. By using this concentration as the highest level, threefold serial dilution was performed with a 10% fetal calf serum-RPMI1640 culture medium. Then it was added in 0.1 ml portions into the wells of the above-mentioned plate wherein the KB cells had been incubated followed by incubation in the incubator containing 5% of carbon dioxide at 37° C. for 3 days.
After incubating, an MTT (3-(4,5-dimethylthiazol-2-yl)-2,5-diphenyltetrazolium bromide) solution (3.3 mg/ml) was added in 0.05 ml portions into the wells and the incubation was effected for additional 1 hour. After sucking off the supernatant from each well, the formazane thus formed was dissolved in 0.1 ml of dimethyl sulfoxide. Then the absorbance at 540 nm was measured with a microplate reader and employed as an indication of the vital cell count. In accordance with the following equation, the inhibitory ratio was calculated and the 50% inhibitory concentration (IC50) of the test compound was determined. [formula] T: absorbance of a well containing the test commpound. C: absorbance of a well containing no test compound.

Compound	IC50 [µg/mL]
COc1ccc(S(=O)(=O)Nc2cccc3c2[nH]c2ccccc23)cc1 [Example 2, N-(9H-Carbazol-1-yl)-4-methoxybenzenesulfornamide]	0.1 (≈ 0.284 µM)
COc1ccc(S(=O)(=O)Nc2cccc3c(=O)c4ccccc4[nH]c23)cc1 [Example 4, N-(9(10H)-Acridinon-4-yl)-4-methoxyhenzenesulfonamide]	0.17 (≈ 0.447 µM)
COc1ccc(S(=O)(=O)Nc2cccc3c2Nc2ccccc2O3)cc1 [Example 5, 4-Methoxy-N-(10H-phenoxazin-1-yl)benzenesulfonamide]	0.08 (≈ 0.217 µM)
COc1ccc(S(=O)(=O)Nc2cccc3c2Nc2ccccc2CC3)cc1 [Example 6, N-(10,11-Dihydro-5H-dibenz(b,f)azepin-4-yl)-4-methoxybenzenesulfonamide]	0.09 (≈ 0.237 µM)
COc1ccc(S(=O)(=O)Nc2cccc3c2Nc2ccccc2C=C3)cc1 [Example 9, N-(5H-Dibenz[b,f]azepin-4-yl)-4-methoxybenzene-sulfonamilde]	0.23 (≈ 0.608 µM)
COc1ccc(S(=O)(=O)Nc2cccc3c2NC(=O)c2ccccc2O3)cc1 [Example 12, N-(Dibenrz(b,f)(1,4)oxazepin-11(10H)-on-9-yl)-4-methoxybenzenelfonamide]	0.25 (≈ 0.631 µM)
COc1ccc(S(=O)(=O)Nc2cccc3cc4ccccc4nc23)cc1 [Example 14, N-(4-Acridinyl)-4-methoxybenzenesulfonamide]	0.026 (≈ 0.0713 µM)
COc1ccc(S(=O)(=O)Nc2cccc3c2Nc2ncccc2O3)cc1 [Example 15, 4-Methoxy-N-(10H-pyrido(3,2-b)(1,4)benzoxazin-9-yl)-benzenesulfonamide]	0.15 (≈ 0.406 µM)
COc1ccc(S(=O)(=O)Nc2cccc3c2Nc2cccnc2O3)cc1 [Example 16, 4-Methoxy-N-(5H-pyrido(2,3-b)(1,4)benzoxazin-6-yl)-benzenesulfonamide]	0.022 (≈ 0.0596 µM)
COc1ccc(S(=O)(=O)Nc2cccc3c(=O)c4cc(O)ccc4[nH]c23)cc1 [Example 20, N-(7-Hydroxy-9(10H)-acridinon-4-yl)-4-methoxybenzene-sulfonamide]	0.11 (≈ 0.277 µM)
COc1ccc(S(=O)(=O)Nc2cccc3c2Nc2ccc(O)cc2O3)cc1 [Example 22, N-(7-Hvdroxy-10H-phenoxain-1-yl)-4-methoxybenzene-sulfonamide]	0.17 (≈ 0.442 µM)
COc1ccc(S(=O)(=O)Nc2cccc3oc4cc(=O)ccc-4nc23)cc1 [Example 24, 4-Methoxy-N-(3H-phenoxazin-3-on-9-yl)benzene-sulfonamide]	0.0061 (≈ 0.016 µM)
COc1ccc(S(=O)(=O)Nc2cccc3sc4cc(=O)ccc-4nc23)cc1 [Example 25, 4-Methoxy-N-(3-phenothiazin-3-on-9-yl)benzene-sulfonamide]	0.016 (≈ 0.0402 µM)
COc1ccc(S(=O)(=O)Nc2cccc3c2Nc2ccccc2CS3)cc1 [Example 26, N-(5,11-Dihydrobenzo(b,e)(1,4)thiazepin-6-yl)-4-metboxybenzenesulfonamide]	0.15 (≈ 0.376 µM)
COc1ccc(S(=O)(=O)Nc2cccc3c2N(C)c2ccccc2O3)cc1 [Example 29, 4-Methoxy-N-(10-methyl-10H-phenoxazin-1-yl)benzene-sulfonamide]	0.11 (≈ 0.288 µM)
COc1ccc(S(=O)(=O)Nc2cccc3c2Nc2ccc(C)cc2CN3)cc1 [Example 31, N-10,11-Dihydro-2-methyl-5H-dihenzn(b,e)(1,4)-diazepin-6-yl)-4-methoxyhenenesulfonamide]	0.27 (≈ 0.683 µM)

Compound	IC50 [µg/mL]
COc1ccc(S(=O)(=O)Nc2cccc3c2Nc2ccc(CO)cc2O3)cc1 [Example 33, N-(7-Hydroxymethyl-10-phenoxazin-1-yl)-4-methoxy-benzenesulfonamide]	0.043 (≈ 0.108 µM)
Nc1ccc(S(=O)(=O)Nc2cccc3c2Nc2ccccc2S3)cc1 [Example 34, 4-Amino-N-(10-phenothiazin-1-yl)benzenesulfonamide]	0.25 (≈ 0.677 µM)
COc1ccc(S(=O)(=O)Nc2cccc3c2Nc2cncnc2S3)cc1 [Example 35, 4-Melthoxy-N-(5H-pyrimido(4,5-b)(1,4)benzothizin-6-yl)benzenesulfonamide]	0.25 (≈ 0.647 µM)
Cc1ccc(S(=O)(=O)Nc2cccc3c2Nc2ccc(O)cc2CO3)cc1 [Example 38, N-(5,11-Ditiydro-2-hydroxydihenz(b,e)(1,4)oxazepin-6-yl)-4-methylbenzenesulfonamide]	0.047 (≈ 0.123 µM)
COc1ccc(S(=O)(=O)Nc2cc(F)cc3c2Nc2ccc(O)cc2CO3)cc1 [Example 39, N-(5,11-Dihydro-8-fluoro-2-hdroxydihenz(b,e)(1,4)-oxazepin-6-yl)-4-methoxybenrzenesilfonamide]	0.26 (≈ 0.624 µM)
COc1ccc(S(=O)(=O)Nc2cccc3c2Nc2ccccc2OC3)cc1 [Example 40, N-(5,11-Dihydrodibenz(b,e)(1,4)oxalelpin-4-yl)-4-methoxybenzenesulfonamide]	0.032 (≈ 0.0837 µM)
CCN1Cc2ccccc2Nc2c(NS(=O)(=O)c3ccc(OC)cc3)cccc21 [Example 41, N-(10,11-Dihydro-10-ethyl-5H-dihenzo(b,e)(1,4)-diazepin-6-yl)-4-meltoxybenzenesulfonamnide]	0.28 (≈ 0.684 µM)
Cc1ccc(S(=O)(=O)Nc2cccc3c2Nc2ccc(O)cc2CO3)s1 [Example 42, N-(5,11-Dihydro-2-hydroxydihenz(b,e)(1,4)oxazepin-6-yl)-5-methyl-2-thiopbhenesulfonamide]	0.13 (≈ 0.335 µM)
COc1ccc(S(=O)(=O)Nc2cccc3c2Nc2ccc(NC(C)=O)cc2CN3)cc1 [Example 43, N-(2-Acetylamino-10,11-dibydro-5H-dibhenz(b,e)(1,4)-diazepin-6-yl)-4-methoxybenzenesulfonamide]	0.22 (≈ 0.502 µM)
COc1ccc(S(=O)(=O)Nc2cccc3c2Nc2ccc(OCCCO)cc2CN3)cc1 [Example 44, N-(10,11-Dihydro-2-(3-hydroxypropyloxy)-5H-dibenzo-(b,e)(1,4)(diazepin-6-yl)4-metbhoxybenzenesulfonamide]	0.077 (≈ 0.169 µM)
COc1ccc(S(=O)(=O)Nc2cccc3c2Nc2ccc(F)c(O)c2CO3)cc1 [Example 45, N-(5,11-Dihydro-2-fluoro-1-hydroxydibenz(b,e)-(1,4)oxazepin-6-yl)-4-methoxybenzenesulfonamide]	0.016 (≈ 0.0384 µM)
COc1ccc(S(=O)(=O)Nc2cccc3c2Nc2c(Cl)cc(F)c(O)c2CN3)cc1 [Example 46, N-(4-Chloro-10,11-dihvdro-2-fluoro-1-hvdroxy-5-dibenzo(b,e)(1,4)diazepin-6-yl)-4-methoxybenzene-sulfonamide]	0.25 (≈ 0.556 µM)
COc1ccc(S(=O)(=O)Nc2cccc3c2Nc2ccc(F)c(O)c2CN3)cc1 [Example 47, N-(10,11-Dihydro-2-fluoro-1-hydroxy-5H-dibenzo(b,e)-(1,4)diazepin-6-yl)-4-methoxybenzenesulfonamide]	0.078 (≈ 0.188 µM)
COc1ccc(S(=O)(=O)Nc2cccc3c2Nc2ccc(C#N)cc2CN3)cc1 [Example 48, N-(2-Cyano-10,11-dihydro-5H-dibenzo(b,e)(1,4)diazepin-6-yl)-4-methoxybenzenesulfonamide]	0.028 (≈ 0.0689 µM)
COc1ccc(S(=O)(=O)Nc2cccc3c2Nc2ccc(F)cc2NC3)cc1 [Example 49, N-(10,11-Dihydro-8-fluoro-5H-dibenzo(b,e)(1,4)-diazepin-4-yl)-4-methoxybenzenesulfonamide]	0.08 (≈ 0.2 µM)
